Experimental findings from article PMC9901937, “Selective androgen receptor degrader (SARD) to overcome antiandrogen resistance in castration-resistant prostate cancer” (eLife, 2023) are described below.

The target in this test is T1, androgen receptor (AR) (Homo sapiens, UniProt P10275).
T1 construct: AR from LNCaP cytosol (LBD site)
T1 sequence (P10275 1-920): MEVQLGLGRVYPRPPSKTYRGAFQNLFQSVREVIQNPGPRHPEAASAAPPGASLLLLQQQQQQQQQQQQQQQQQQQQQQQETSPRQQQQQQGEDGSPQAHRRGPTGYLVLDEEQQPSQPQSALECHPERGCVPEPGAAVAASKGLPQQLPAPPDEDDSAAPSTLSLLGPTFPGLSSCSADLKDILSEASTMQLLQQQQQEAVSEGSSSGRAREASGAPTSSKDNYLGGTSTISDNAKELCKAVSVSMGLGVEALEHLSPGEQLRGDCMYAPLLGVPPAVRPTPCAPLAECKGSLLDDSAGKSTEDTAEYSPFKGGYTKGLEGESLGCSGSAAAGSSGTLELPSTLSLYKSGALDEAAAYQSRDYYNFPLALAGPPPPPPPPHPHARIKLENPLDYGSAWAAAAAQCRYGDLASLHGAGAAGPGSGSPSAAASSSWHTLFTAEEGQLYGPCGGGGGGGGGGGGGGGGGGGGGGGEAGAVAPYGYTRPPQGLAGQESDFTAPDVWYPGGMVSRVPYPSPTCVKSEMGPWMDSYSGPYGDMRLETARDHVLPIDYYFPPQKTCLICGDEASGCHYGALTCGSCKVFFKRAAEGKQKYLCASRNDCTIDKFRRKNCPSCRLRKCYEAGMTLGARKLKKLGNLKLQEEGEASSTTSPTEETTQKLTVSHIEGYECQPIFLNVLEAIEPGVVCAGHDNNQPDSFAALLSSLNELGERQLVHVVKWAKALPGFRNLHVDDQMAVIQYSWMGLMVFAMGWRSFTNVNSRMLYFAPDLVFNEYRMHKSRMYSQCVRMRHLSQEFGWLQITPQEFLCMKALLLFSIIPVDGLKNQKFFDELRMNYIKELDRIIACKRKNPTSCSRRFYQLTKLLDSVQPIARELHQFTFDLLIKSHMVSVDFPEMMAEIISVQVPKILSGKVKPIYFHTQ
Description: [3H]DHT competitive radioligand binding; also BLI and FP on AR LBD, and SPR (KD […]) and BLI on AR AF1 ([…] aa).

By IC50 is commonly meant the concentration needed to halve the response being measured. Low readings indicate higher potency, high ones lower potency.

In the case of `Cc1noc(C)c1COc1ccc(C(=O)Nc2nc(-c3cccs3)cs2)cc1` [Z15, 4-[(3,5-Dimethyl-4-isoxazolyl)methoxy]-N-4-[(2-thienyl)-2-thiazole]-benzamide], the IC50 is 63.3 nM.
